Results published in patent publication US20260285888A1, “HETEROCYCLIC COMPOUND AND USE THEREOF” (OTSUKA PHARMACEUTICAL CO., LTD., priority 2023, published 2026).
Where two headings read alike, the source gives them in different places.

What was measured:
in vitro = format: cell-based, human; settings: human, 300 μmol/L, about 24 hours, PMA-differentiated HL-60 cells, LDH, no-treatment 0%, cell lysis buffer 100%, read-out: cytotoxicity (%) Evaluation compound results
Summary of the method: (§1)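 HL-60 cells differentiated ~72 h with 10 nM PMA, then exposed ~24 h to compound at 300 μmol/L final in RPMI with 2% FBS. LDH release in supernatant gave cytotoxicity % scaled between untreated (0%) and lysis-buffer (100%) groups; triplicate.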

[1] = Study for confirmation of conversion to brexpiprazole in a buffer (stability of the evaluation compounds); format: physicochemical; settings: in buffer, average of duplicate; for Concentration of brexpiprazole formed: 60-minute reaction sample; for Concentration of evaluation compound decreased: decrease in 60-minute vs 0-minute reaction sample
Summary of the method: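 Compounds (final 1 μmol/L, from 100 μmol/L working solutions) incubated in buffer at 37° C. for 0 or 60 min, in duplicate, after 3 min pre-incubation of the reaction solution. Reactions stopped with acetonitrile/isopropanol (4:1) containing internal standards; compound and formed brexpiprazole quantified against 0.01–1 μmol/L calibration samples.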

HL-60 cells = test: in vitro; format: cell-based, human
Summary of the method: as §1

| Concentration of brexpiprazole formed [1] | Concentration of evaluation compound decreased [1] | Molecule | cytotoxicity at 24 h, 300 µM (in vitro; differentiated hl-60 cells) | cytotoxicity at 24 h, 300 µM (in vitro) | cytotoxicity compared with the controls (in words) (HL-60 cells; 300 μmol/L, about 24 hours, HL-60 cells) | cytotoxicity (%) Evaluation compound results (HL-60 cells; human, differentiated hl-60 cells, 24 h, 300 µM) |
| --- | --- | --- | --- | --- | --- | --- |
| 0 nM | 20 nM | O=C(OCOP(=O)([O-])OC[N+]1(CCCCOc2ccc3ccc(=O)[nH]c3c2)CCN(c2cccc3sccc23)CC1)OC1CCOCC1 [EX 141, (4-(benzo[b]thiophen-4-yl)-1-(4-((2-oxo-1,2-dihydroquinolin-7-yl)oxy)butyl)piperazin-1-ium-1-yl)methyl (((((tetrahydro-2H-pyran-4-yl)oxy)carbonyl)oxy)methyl) phosphate] | 19% |  |  |  |
| 0 nM | -70 nM | O=C(OCOP(=O)([O-])OC[N+]1(CCCCOc2ccc3ccc(=O)[nH]c3c2)CCN(c2cccc3sccc23)CC1)OCC1CCOCC1 [EX 142, (4-(benzo[b]thiophen-4-yl)-1-(4-((2-oxo-1,2-dihydroquinolin-7-yl)oxy)butyl)piperazin-1-ium-1-yl)methyl (((((tetrahydro-2H-pyran-4-yl)methoxy)carbonyl)oxy)methyl) phosphate] | 8% |  |  |  |
| 0 nM | 50 nM | CCOC(=O)CCOC(=O)OCOP(=O)([O-])OC[N+]1(CCCCOc2ccc3ccc(=O)[nH]c3c2)CCN(c2cccc3sccc23)CC1 [EX 143, (4-(benzo[b]thiophen-4-yl)-1-(4-((2-oxo-1,2-dihydroquinolin-7-yl)oxy)butyl)piperazin-1-ium-1-yl)methyl ((((3-ethoxy-3-oxopropoxy)carbonyl)oxy)methyl) phosphate] | -5% |  |  |  |
| 0 nM | 110 nM | O=C(OCCCN1CCOCC1)OCOP(=O)([O-])OC[N+]1(CCCCOc2ccc3ccc(=O)[nH]c3c2)CCN(c2cccc3sccc23)CC1 [EX 146, (4-(Benzo[b]thiophen-4-yl)-1-(4-((2-oxo-1,2-dihydroquinolin-7-yl)oxy)butyl)piperazin-1-ium-1-yl)methyl ((((3-morpholinopropoxy)carbonyl)oxy)methyl) phosphate] | 1% |  |  |  |
| 0 nM | 70 nM | CCOC(=O)C1CCN(CCOP(=O)([O-])OC[N+]2(CCCCOc3ccc4ccc(=O)[nH]c4c3)CCN(c3cccc4sccc34)CC2)CC1 [EX 147, (4-(benzo[b]thiophen-4-yl)-1-(4-((2-oxo-1,2-dihydroquinolin-7-yl)oxy)butyl)piperazin-1-ium-1-yl)methyl (2-(4-(ethoxycarbonyl)piperidin-1-yl)ethyl) phosphate] | -6% |  |  |  |
| 0 nM | 110 nM | CC(C)(C)C(=O)OP(=O)([O-])OC[N+]1(CCCCOc2ccc3ccc(=O)[nH]c3c2)CCN(c2cccc3sccc23)CC1 [EX 150, (4-(benzothiophen-4-yl)-1-(4-((2-oxo-1H-quinolin-7-yl)oxy)butyl)piperazin-1-ium-1-yl)methyl 2,2-dimethylpropanoyl phosphate] | 10% |  |  |  |
| 0 nM | 20 nM | CCOC(=O)CNP(=O)([O-])OC[N+]1(CCCCOc2ccc3ccc(=O)[nH]c3c2)CCN(c2cccc3sccc23)CC1 [EX 154, (4-(benzo[b]thiophen-4-yl)-1-(4-((2-oxo-1,2-dihydroquinolin-7-yl)oxy)butyl)piperazin-1-ium-1-yl)methyl (2-ethoxy-2-oxoethyl)phosphoramidate] | 4% |  |  |  |
| 0 nM | 70 nM | C[C@H](NP(=O)([O-])OC[N+]1(CCCCOc2ccc3ccc(=O)[nH]c3c2)CCN(c2cccc3sccc23)CC1)C(N)=O [EX 158, (4-(benzo[b]thiophen-4-yl)-1-(4-((2-oxo-1,2-dihydroquinolin-7-yl)oxy)butyl)piperazin-1-ium-1-yl)methyl (S)-(1-amino-1-oxopropan-2-yl)phosphoramidate] | -3% |  |  |  |
| 0 nM | -10 nM | O=C(OCOP(=O)([O-])OC[N+]1(CCCCOc2ccc3ccc(=O)[nH]c3c2)CCN(c2cccc3sccc23)CC1)N1CCOCC1 [EX 160, (4-(benzo[b]thiophen-4-yl)-1-(4-((2-oxo-1,2-dihydroquinolin-7-yl)oxy)butyl)piperazin-1-ium-1-yl)methyl (((morpholine-4-carbonyl)oxy)methyl) phosphate] | 9% |  |  |  |

Continued, molecule first:

| Molecule | Concentration of brexpiprazole formed [1] | Concentration of evaluation compound decreased [1] | cytotoxicity at 24 h, 300 µM (in vitro; differentiated hl-60 cells) | cytotoxicity at 24 h, 300 µM (in vitro) | cytotoxicity compared with the controls (in words) (HL-60 cells; 300 μmol/L, about 24 hours, HL-60 cells) | cytotoxicity (%) Evaluation compound results (HL-60 cells; human, differentiated hl-60 cells, 24 h, 300 µM) |
| --- | --- | --- | --- | --- | --- | --- |
| CCOC(=O)CCCCCOC(=O)OCOP(=O)([O-])OC[N+]1(CCCCOc2ccc3ccc(=O)[nH]c3c2)CCN(c2cccc3sccc23)CC1 [EX 144] | 0 nM | 120 nM | 18% |  |  |  |
| O=C(O)CCCCCOC(=O)OCOP(=O)([O-])OC[N+]1(CCCCOc2ccc3ccc(=O)[nH]c3c2)CCN(c2cccc3sccc23)CC1 [EX 145, (4-(benzo[b]thiophen-4-yl)-1-(4-((2-oxo-1,2-dihydroquinolin-7-yl)oxy)butyl)piperazin-1-ium-1-yl)methyl (((((5-carboxypentyl)oxy)carbonyl)oxy)methyl) phosphate] | 0 nM | 30 nM | -9% |  |  |  |
| CCNP(=O)([O-])OC[N+]1(CCCCOc2ccc3ccc(=O)[nH]c3c2)CCN(c2cccc3sccc23)CC1 [EX 151, (4-(benzo[b]thiophen-4-yl)-1-(4-((2-oxo-1,2-dihydroquinolin-7-yl)oxy)butyl)piperazin-1-ium-1-yl)methyl ethylphosphoramidate] | 0 nM | -10 nM | -6% |  |  |  |
| COCCNP(=O)([O-])OC[N+]1(CCCCOc2ccc3ccc(=O)[nH]c3c2)CCN(c2cccc3sccc23)CC1 [EX 152, (4-(benzo[b]thiophen-4-yl)-1-(4-((2-oxo-1,2-dihydroquinolin-7-yl)oxy)butyl)piperazin-1-ium-1-yl)methyl (2-methoxyethyl)phosphoramidate] | 0 nM | 10 nM | -10% |  |  |  |
| COCCN(CCOC)P(=O)([O-])OC[N+]1(CCCCOc2ccc3ccc(=O)[nH]c3c2)CCN(c2cccc3sccc23)CC1 [EX 153, (4-(benzo[b]thiophen-4-yl)-1-(4-((2-oxo-1.2-dihydroquinolin-7-yl)oxy)butyl)piperazin-1-ium-1-yl)methyl bis(2-methoxyethyl)phosphoramidate] | 0 nM | -10 nM |  | -7% |  |  |
| CC(C)(C)OC(=O)CNP(=O)([O-])OC[N+]1(CCCCOc2ccc3ccc(=O)[nH]c3c2)CCN(c2cccc3sccc23)CC1 [EX 155, (4-(benzo[b]thiophen-4-yl)-1-(4-((2-oxo-1,2-dihydroquinolin-7-yl)oxy)butyl)piperazin-1-ium-1-yl)methyl (2-(tert-butoxy)-2-oxoethyl)phosphoramidate] | 0 nM | 160 nM | -3% |  |  |  |
| CCOC(=O)[C@H](C)NP(=O)([O-])OC[N+]1(CCCCOc2ccc3ccc(=O)[nH]c3c2)CCN(c2cccc3sccc23)CC1 [EX 156, (4-(benzo[b]thiophen-4-yl)-1-(4-((2-oxo-1,2-dihydroquinolin-7-yl)oxy)butyl)piperazin-1-ium-1-yl)methyl (S)-(1-ethoxy-1-oxopropan-2-yl)phosphoramidate] | 0 nM | 170 nM | -9% |  |  |  |
| C[C@H](NP(=O)([O-])OC[N+]1(CCCCOc2ccc3ccc(=O)[nH]c3c2)CCN(c2cccc3sccc23)CC1)C(=O)OC(C)(C)C [EX 157, (4-(benzo[b]thiophen-4-yl)-1-(4-((2-oxo-1,2-dihydroquinolin-7-yl)oxy)butyl)piperazin-1-ium-1-yl)methyl (S)-(1-(tert-butoxy)-1-oxopropan-2-yl)phosphoramidate] | 0 nM | 80 nM | -4% |  |  |  |
| CC(C)OC(=O)[C@H](C)NP(=O)([O-])OC[N+]1(CCCCOc2ccc3ccc(=O)[nH]c3c2)CCN(c2cccc3sccc23)CC1 [EX 159, (4-(benzo[b]thiophen-4-yl)-1-(4-((2-oxo-1,2-dihydroquinolin-7-yl)oxy)butyl)piperazin-1-ium-1-yl)methyl (S)-(1-isopropoxy-1-oxopropan-2-yl)phosphoramidate] | 0 nM | 60 nM | -1% |  |  |  |
| O=C(OC[N+]1(CCCCOc2ccc3ccc(=O)[nH]c3c2)CCN(c2cccc3sccc23)CC1)N1CCCCC1 [Reference Example 4 compound, reference compound] |  |  |  |  | stronger cytotoxicity than that of the Reference Example 3 compound |  |
| (4-(benzo[b]thiophen-4-yl)-1-(4-(2-oxo-1,2-dihydroquinolin-7-yl)oxy)butyl)piperazin-1-ium-1-yl)methyl (5-bromopentyl) phosphate [EX 114] |  |  |  |  |  | 14% |
